Test results published in PubChem BioAssay AID1996.
In brackets after ≈: the same amount, converted by molar mass. Non-standard residues stand in square brackets, D forms with d. Residues, ends and D or L forms follow the SMILES beside them. ξ: configuration not given here. *: point of attachment. Cbz = O=C(OCc1ccccc1)*; ξV = CC(C)C(N)C(=O)O

Settings: buffer; pH 7.4; 200.0 µM

| solubility kinetic | Compound |
| --- | --- |
| 43.2 µg/mL (≈ 139 µM) | C#CC1CCCCC1NC(=O)Nc1cnccc1C(F)(F)F (stereo unspecified) |
| 2 µg/mL (≈ 6.61 µM) | CSc1ccccc1C(=O)Nc1cc([N+](=O)[O-])ccc1C |
| > 34.8 µg/mL | C=CCN1C(=S)N[C@@H]2CS(=O)(=O)C[C@@H]21 |
| 45 µg/mL (≈ 132 µM) | COc1ccc(C(=O)N2CC3(C)C4CCC3(C)C2(C#N)C4)cc1OC (stereo unspecified) |
| > 47.6 µg/mL | Cc1ccccc1OCC(=O)Nc1cnn(CCCC(=O)O)c1 |
| 45.8 µg/mL (≈ 140 µM) | CC(C)=CCN1CCN(Cc2cc3ccccc3[nH]2)CC1CCO (stereo unspecified) |
| > 48.4 µg/mL | CC(=O)N1c2ccc(S(=O)(=O)N3CCCCC3)cc2CC1C (stereo unspecified) |
| > 57.6 µg/mL | CN(Cc1c(F)cccc1Cl)C(=O)C1=CC=CN2CCS(=O)(=O)N=C12 |
| 52.4 µg/mL (≈ 137 µM) | O=C(CN1C(=O)C(=O)N(Cc2ccco2)C1=O)Nc1ccc(F)c(F)c1F |
| 0.8 µg/mL (≈ 2.77 µM) | O=C(Nc1ccncc1)c1sc2ccccc2c1Cl |
| 8.1 µg/mL (≈ 23.8 µM) | O=C(COC(=O)COc1ccc(Cl)cc1)NC1CCCCCC1 |
| 7.6 µg/mL (≈ 21.5 µM) | O=C(COC(=O)/C=C/c1ccco1)NCc1ccc(Cl)cc1Cl |
| 11.5 µg/mL (≈ 47.8 µM) | O=C(NC1=NCCS1)c1ccc(Cl)cc1 |
| 4.8 µg/mL (≈ 17.8 µM) | Cn1c(NC(=O)c2ccc(F)cc2)nc2ccccc21 |
| > 44.6 µg/mL | COCCn1cnnc1SCC(=O)Nc1cc(C)on1 |
| > 42.5 µg/mL | C/C(O)=C(\C#N)P(=O)(c1ccccc1)c1ccccc1 |
| > 41.5 µg/mL | Cc1cc(Cl)ccc1OCC(=O)Nc1ccncc1 |
| > 38 µg/mL | Cc1ccccc1NC(=O)CC(=O)c1ccccc1 |
| 30.5 µg/mL (≈ 109 µM) | CC(Cc1ccccc1)NC(=O)c1cc2ccccc2o1 (stereo unspecified) |
| 29 µg/mL (≈ 126 µM) | O=C(O)CNS(=O)(=O)Cc1ccccc1 |
| 0.4 µg/mL (≈ 1.13 µM) | COc1cc(NC(=O)Nc2cccc3cccnc23)cc(OC)c1OC |
| > 45.5 µg/mL | CCCNC(=O)CN1C(=O)NC(CCc2ccccc2)C1=O (stereo unspecified) |

| solubility kinetic | Compound |
| --- | --- |
| < 0.8 µg/mL | Cc1ccc(S(=O)(=O)CCSc2ccc(C(F)(F)F)cn2)cc1 |
| > 41.1 µg/mL | O=C(Nc1ccc2c(c1)OCO2)C1CC1(Cl)Cl (stereo unspecified) |
| 28.3 µg/mL (≈ 102 µM) | CCCNC(=S)N1CCC(Cc2ccccc2)CC1 |
| 9.6 µg/mL (≈ 27.9 µM) | CC1(C)C(=O)Nc2ccccc2N1C(=O)COC(=O)c1cccs1 |
| < 0.4 µg/mL | CCCCNC(=O)c1cc2c(=O)n(CC)c3ccccc3c2s1 |
| > 35.3 µg/mL | CCOC(=O)Cn1c(=O)oc2ccc(C)cc21 |
| 6.3 µg/mL (≈ 17.3 µM) | COc1cc(SC)ccc1C(=O)N(Cc1ccccc1)c1ccccc1 |
| 48.8 µg/mL (≈ 141 µM) | O=[N+]([O-])c1ccc(NCCCO)c(S(=O)(=O)N2CCOCC2)c1 |
| > 44 µg/mL | COC(=O)c1cc(N=C(N)N=C(N)N)cc(C(=O)OC)c1 |
| > 48.4 µg/mL | OCCC1CN(CC2CCCCC2)CCN1CC1CCCCC1 (stereo unspecified) |
| 29.1 µg/mL (≈ 92.9 µM) | CC(=O)Oc1ccc(C(=O)NCc2ccc3c(c2)OCO3)cc1 |
| 50.6 µg/mL (≈ 132 µM) | COc1ccc(C(=O)NCCn2cc(SCC(N)=O)c3ccccc32)cc1 |
| 3.8 µg/mL (≈ 10.6 µM) | CCOC(=O)COn1c(=O)c(-c2ccc(F)cc2)[n+]([O-])c2ccccc21 |
| < 0.3 µg/mL | O=[N+]([O-])c1ccc(/C=C/c2ccc3cccc(O)c3n2)cc1 |
| 10.3 µg/mL (≈ 34.1 µM) | O=C(CNC(=O)OCc1ccccc1)Nc1ccc(F)cc1 |
| > 50 µg/mL | CCCCC12CN3CC(C)(CN(C1)C3c1ccc([N+](=O)[O-])o1)C2=O (stereo unspecified) |
| 0.4 µg/mL (≈ 1.55 µM) | Cc1ccc(NC(=S)Nc2ccccn2)cc1C |
| 10.3 µg/mL (≈ 39.6 µM) | N#CC1C=Cc2ccccc2N1C(=O)c1ccccc1 (stereo unspecified) |
| 26.8 µg/mL (≈ 106 µM) | Cc1cc(OCCCN2CCCC2)ccc1Cl |
| < 0.7 µg/mL | COc1ccc(Cl)cc1N=Cc1c(O)c2ccccc2oc1=O |
| > 50.3 µg/mL | Cc1ccc(C(=O)C[n+]2cccc(C(N)=O)c2)cc1.[Br-] |
| > 52.3 µg/mL | Cc1csc(=O)n1CCC(=O)OC(C)C(=O)NCc1ccccc1 (stereo unspecified) |

Continued, molecule first:

| Compound | solubility kinetic |
| --- | --- |
| COC(OC)c1ccnc(-c2ccc(OC(=O)c3ccccc3)cc2)n1 | < 0.4 µg/mL |
| O=C(NOCc1ccccc1)c1ccc(Cl)cc1Cl | 36.4 µg/mL (≈ 123 µM) |
| O=C(O)COCC(=O)N1CCN(C(c2ccccc2)c2ccccc2)CC1 | > 55.3 µg/mL |
| CC(C)(C)NC(=O)NC(=O)CN1CCCc2ccccc21 | 11.9 µg/mL (≈ 41.1 µM) |
| Cc1ccc(NC(=S)NCCCN2CCOCC2)cc1C | > 46.1 µg/mL |
| COc1cc(C(=S)N2CCOCC2)cc(OC)c1OC | > 44.6 µg/mL |
| O=C(O)Cc1ccc(NS(=O)(=O)c2ccc3ccccc3c2)cc1 | > 51.2 µg/mL |
| Cc1[nH]c2ccc(Cl)cc2c(=O)c1CN1CCCC1 | 38.7 µg/mL (≈ 140 µM) |
| COc1ccc(Nc2nc(NCc3ccco3)nc(N)c2[N+](=O)[O-])cc1 | 0.2 µg/mL (≈ 0.561 µM) |
| OC1(C#CCN2CCCC2)c2ccccc2-c2ccccc21 | 11.4 µg/mL (≈ 39.4 µM) |
| COCC(=O)OC/C(O)=C(\C#N)c1nc2ccccc2[nH]1 | > 43.1 µg/mL |
| O=c1ccc(C(F)(F)F)cn1Cc1cc(=O)n2ccsc2n1 | 44.2 µg/mL (≈ 135 µM) |
| O=C(O)CCCCCNC(=O)C(=O)C1C(=O)Nc2ccccc21 (stereo unspecified) | > 47.7 µg/mL |
| COc1ccc(-c2cc(C(=O)N3CCCCCC3)no2)cc1 | 4 µg/mL (≈ 13.3 µM) |
| Br.CN1CCN(C(=O)Cc2ccccc2)CC1 | > 44.9 µg/mL |
| Cn1ccnc1SCC(=O)NCC(=O)Nc1ccc(F)c(F)c1F | > 53.7 µg/mL |
| COc1ccc(NC(=O)CN(C)CC(=O)N2CC(=O)Nc3ccccc32)cc1 | > 57.4 µg/mL |
| Cc1cccc(C(=O)Nc2ccc(O)cc2C(=O)O)c1 | > 40.7 µg/mL |
| O=C(CN1C(=O)NC2(CCCC2)C1=O)Nc1cc(C(F)(F)F)ccc1N1CCOCC1 | 5.2 µg/mL (≈ 11.8 µM) |
| CC(=O)c1cccc(NC(=O)C2COc3ccccc3O2)c1 (stereo unspecified) | 44.1 µg/mL (≈ 148 µM) |
| CCc1cc(C(=O)Nc2ncccc2O)sc1C | > 39.3 µg/mL |

| Compound | solubility kinetic |
| --- | --- |
| CC(C)CC(=O)Nc1cccc(-c2nc3ccccc3[nH]2)c1 | 32.2 µg/mL (≈ 110 µM) |
| N#Cc1ccsc1NC(=O)CCS(=O)(=O)c1ccccc1 | 41.7 µg/mL (≈ 130 µM) |
| Cc1ccc(NC(=O)c2cc(=O)[nH]c3ccccc23)cc1 | 1.6 µg/mL (≈ 5.75 µM) |
| COC(=O)CNC(=O)C(NC(=O)OCc1ccccc1)C(C)C (stereo unspecified) (Cbz-[ξV]-Gly-OMe) | > 48.4 µg/mL |
| Cc1ccc(NC(=O)C2COc3ccccc3O2)cc1 (stereo unspecified) | 13.3 µg/mL (≈ 49.4 µM) |
| O=C1Nc2ccccc2C1c1ncc(C(F)(F)F)cc1Cl (stereo unspecified) | > 46.9 µg/mL |
| CC(=O)Oc1ccccc1C(=O)N(C1CCCCC1)C1CCCCC1 | 44.5 µg/mL (≈ 130 µM) |
| CN(C)CCSC1c2ccccc2CSc2ccccc21.Cl (stereo unspecified) | 51.6 µg/mL |
| CCOC(=O)CSc1nnc(CNC(=O)c2cccc(C)c2)n1C | > 52.3 µg/mL |
| CN(C)C(CNC(=O)c1ccc2ccccc2n1)c1ccccc1 (stereo unspecified) | 27.5 µg/mL (≈ 86.1 µM) |
| COCCNc1nc(-c2ccccc2)nc2c1oc1ccccc12.Cl | 4.6 µg/mL |
| C/C(=N/OC(=O)C1CC1)c1cc(-c2ccc(Cl)cc2)no1 | 0.4 µg/mL (≈ 1.31 µM) |
| C=CCN(c1ccccc1OC)S(=O)(=O)c1cccc(C(=O)OCC(=O)N2CC(C)OC(C)C2)c1 (stereo unspecified) | 52.7 µg/mL (≈ 105 µM) |
| COc1ccc(NC(=O)Cc2ccc(C)c(C)c2)cc1Cl | 2.1 µg/mL (≈ 6.91 µM) |
| CC(=O)NCc1cc(-c2ccc(Cl)cc2)no1 | 37.2 µg/mL (≈ 148 µM) |
| NCCCn1cnc2ccccc21 | > 26.3 µg/mL |
| CC(C)[C@H](NC(=O)c1ccccc1F)C(=O)NC1CCCCC1 | > 48.1 µg/mL |
| Cc1cccc(C(=O)Nc2cccc3c2CCCC3)c1 | 0.8 µg/mL (≈ 3.01 µM) |
| O=C(COC(=O)/C=C/c1ccc([N+](=O)[O-])cc1)NCc1cccs1 | 4.2 µg/mL (≈ 12.1 µM) |
| CC1CN=C(Nc2ccc(F)cc2)S1 (stereo unspecified) | > 31.5 µg/mL |
| Nc1nc2c(s1)COc1ccccc1-2 | > 30.6 µg/mL |
